# Reference: patent publication US11730751B2, “Treating and preventing motor neuron diseases using nicotinamide riboside” (Elysium Health, Inc., priority 2017, dated 2023)
# Assays:
# Format in all cases: in vivo
# [1] = tested on: transgenic SOD1 G93A mice; assay: Motor behavior and performance tests in SOD1 mice (FIG. 3-9); conditions: in words; for motor functions of SOD1 mice: FIG. 3-9, benefits only in the last weeks of the experiment
# From the text: (§1) 1. B6.Cg-Tg(SOD1*G93A)1Gur/J (https://www.jax.org/strain/004435)
# (§2) Mice hemizygous for this SOD1-G93A (also called G93A-SOD1) transgene were viable and fertile, with transgenic expression of a G93A mutant form of human SOD1. This founder line (often referred to as G1H) was reported to have high transgene copy number. […] Motor neuron degeneration has been associated with function and/or degeneration of astrocytes, the major glial cell type of the nervous system. […] Female hemizygotes were poor breeders, and rarely produced more than one litter before the onset of disease. […] The pattern of gene expression in SOD1G93A activated microglia represented a unique ALS-specific signature. These SOD1-G93A (also called G93A-SOD1) transgenic mice were useful in studying neuromuscular disorders, including Amyotrophic Lateral Sclerosis.
# (§3) Nicotinamide riboside, pterostilbene, and resveratrol were administered orally: 185 mg of nicotinamide riboside and/or 30 mg of pterostilbene or resveratrol per Kg per day were administered to the mice.
# This score was based on the scale of Weydt et al. (Neuroreport 14: 1051-1054, 2003). […] When the animals reached a score of “4”, the access to food and water was facilitated by placing food pellets on the cage floor to all transgenic mice. Reaching a score of “5”, the animals were euthanized for ethical reasons. […] Changes over time in the different groups were monitored weekly from week 8 (P50) to week 20 (P140).
# This score was based on the SHIRPA tail scale, procedure developed by Rogers et al. (Mamm. Genome 8: 711-713, 1997) in the MRC, United Kingdom. […] Changes over time in the different groups were monitored weekly.
# Functions of the test included evaluating balance, grip strength and motor coordination of the subjects; especially in testing the effect of experimental drugs. For this test (Rota Rod, Harvard Apparatus, Holliston, Mass.), each animal was given three trials and the maximum period (seconds) that it could remain on a rotating axle (3.5 cm diameter; speed of rotation: 15 rpm) without falling was measured. Each mouse was given up to three attempts for an arbitrary limit of 1200 seconds and the longest period was recorded. Changes over time in the different groups were monitored weekly.
# Motor function and deficit in rodent models of CNS disorders were evaluated. […] Each mouse was given up to three attempts for a maximum of 180 seconds and the longest period was recorded. Changes over time in the different groups were monitored weekly.
# For this locomotor rating test, a flat rolling band (Treadmill, Harvard Apparatus) was used and set at an angle of 5°. […] Each mouse was given two trials and the maximum distance run and the number of electrical stimuli received during the test (not exceeding 3 seconds) were recorded. […]
# [2] = tested on: transgenic SOD1 G93A mice; assay: Survival time of SOD1 G93A mice (Kaplan-Meier); conditions: in words, oral 185 mg NR and/or 30 mg PT or R per Kg per day, FIG. 1-2
# From the text: as §1, §2, §3
# [3] = tested on: transgenic SOD1 G93A mice; assay: Electrophysiological measurements (CMAP, gastrocnemius muscle after sciatic nerve stimulation) in SOD1 mice; conditions: in words, FIG. 9
# Method: Nicotinamide riboside, pterostilbene, and resveratrol were administered orally: 185 mg of nicotinamide riboside and/or 30 mg of pterostilbene or resveratrol per Kg per day were administered to the mice. Changes over time in evoked Compound Motor Action Potential (CMAP) in the gastrocnemius muscle after stimulation of the sciatic nerve were monitored at P50 (week 8) and […] (week 18). Recordings were made on a 2-channel electromyography system (Keypoint portable; Medtronic, Skovlunde, Denmark), with the high-frequency filter set at 5 kHz and the low-frequency filter set at 2 Hz. Electric stimulation produces artifacts; to reduce them, rectangular monophase electric pulses with a pulse width of 0.04 ms were used. For CMAP measurements the stimulation electrode was placed on the nerve at distance of 1 cm from the recording electrode placed on the gastrocnemius muscle through percutaneous puncture in the distal third of the paw, ipsilaterally to the surgical procedure, with a coaxial needle. The data of CMAP amplitude were expressed in millivolts, the data of latency were expressed in milliseconds and the data of nerve conduction velocity were expressed in meters per second (m/s). The number of animals tested per time point and group was of n=4.
Compound,motor functions of SOD1 mice [1],survival of SOD1 mice [2],motor action potential [3],statistical comparison with the same group without R (SOD1 vs SOD1+R; SOD1+NR vs SOD1+NR+R) ([1]; Student's t-test)
"COc1cc(/C=C/c2ccc(O)cc2)cc(OC)c1 [PT, pterostilbene]",but not PT alone improved motor functions,did not improve survival,–,–
"NC(=O)c1ccc[n+]([C@@H]2O[C@H](CO)[C@@H](O)[C@H]2O)c1 [NR, nicotinamide riboside]",improved motor functions,–,preserving motor action potential,–
"Oc1ccc(C=Cc2cc(O)cc(O)c2)cc1 [Resveratrol, resveratrol, reference compound]",showed no benefit,showed no benefit,–,did not show significant differences
